# Results reported in US20240216384A1, “COMPOSITION FOR PREVENTING OR TREATING METABOLIC DISEASES, CONTAINING TRICYCLO DERIVATIVE COMPOUND” (ONCOCROSS CO.,LTD., priority 2021, published 2024).
# Where a name gives a salt, the structure may show the parent alone.
# Assays:
# HepG2 cell line = assay: Oleic acid-induced fat accumulation, Oil-Red O staining; format: cell-based; settings: for fat accumulation inhibitory effect: HepG2 treated with oleic acid, Oil-Red O
# Procedure: By treating the HepG2 cell line, a liver cancer cell line, with oleic acid, fat accumulation was induced into cells, and simultaneously, JPI-289 was treated together to identify the effect of JPI-289 on inhibiting fat accumulation using the Oil-Red O staining method. Herein, INT-747, a drug that succeeded in phase 3 clinical trials for NASH indication, was treated as a positive control group.
# [1] = test system: MCF7, PC3, and HL60 cell lines; assay: MTT analysis of JPI-289 toxicity in multiple cell lines; format: cell-based
# Procedure: To identify the toxicity of JPI-289 to cells, MTT analysis was performed using three cell lines: MCF7, PC3, and HL60 (indicated as Cell 1 to Cell 3 in FIG. 1, respectively). Specifically, each cell line was treated with a control group, a DMSO control group (vehicle control), and JPI-289 (10-ethoxy-8-(morpholinomethyl)-2,3,4,6-tetrahydrobenzo[h][1,6]naphthyridin-5(1H)-one dihydrochloride dihydrate) at concentrations of 0.5, 1, 5, 10, 20, and 40 uM, and then treated with MTT tetrazolium after 24, 48, and 72 hours. Then, the cell viability was measured by forming formazan crystals, dissolving the same using DMSO (dimethyl sulfoxide), and measuring the absorbance using an ELISA reader.
# 3T3L1 cell line = assay: MTT analysis of JPI-289 toxicity in preadipocyte cell line; format: cell-based, mouse; settings: 0.05 to 5 uM for 24, 48, or 72 hours
# Procedure: The 3T3L1 cell line, a preadipocyte cell line, was dispensed in a 96-well plate, and treated with JPI-289 at a concentration of 0.05 to 5 uM for 24, 48, or 72 hours, and MTT analysis was performed.
# [2] = test system: mouse preadipocyte cell line 3T3L1; assay: Adipocyte differentiation / fat accumulation, Oil-Red O staining; format: cell-based; settings: for differentiation into adipocytes: 3T3L1, Oil-Red O
# Procedure: To induce differentiation of mouse preadipocyte cell line 3T3L1 into adipocytes, DMEM medium containing 10% FBS was treated with insulin, dexamethasone, and isobutylmetylxanthin (IBMX). JPI-289 was treated with a differentiation medium from the start day of inducing differentiation into adipocytes to the end of differentiation. At the end of differentiation, cells were fixed and differentiated adipocytes were stained red using Oil-Red O. The degree of staining was recorded in a photograph, Oil Red was dissolved, and the O.D. value was measured using an ELISA reader.
# To identify the inhibitory effect of JPI-289 at a concentration of 5 uM or less on adipocyte differentiation, a re-experiment was performed on the 3T3L1 cell line. Specifically, JPI-289s at concentrations of 0.05, 0.1, 0.25, 0.5, 1, and 2.5 uM were treated together with the differentiation culture medium, respectively, to induce differentiation into adipocytes, and the differentiation into adipocytes and fat accumulation were identified by staining using Oil-Red O.
# The fat accumulation inhibitory effects of other PARP inhibitors, 5-AIQ (10 uM), PJ34 (10 uM), and olaparib (5 uM), and JPI-289 (0.25 to 2.5 uM) were compared in the mouse preadipocyte cell line 3T3L1 by the method of Example 2 above.
# PARylation = PARylation in Hep3B cells in NASH environment (H2O2, TCDD); format: cell-based; settings: 10 uM, 24 hours, 300 uM H2O2, TCDD 10 nM, compared to PJ-34
# Procedure: (§1) A MOA study was conducted to identify the mechanism that has a more significant effect than other PARP inhibitors as in Example 3-1. Specifically, the Hep3B cell line was treated with 300 uM H2O2 for 2 hours to generate a ROS rich situation for NASH, and treated with TCDD (Tetrachlorodibenzo-p-dioxin) at 10 nM for 24 hours to induce overexpression of TIPARP. Then, PARylation was identified, and the influences of JPI-289 (10 uM and 24 hours) and PJ34 (10 uM and 24 hours) were identified, respectively. In addition, DMOG, which induces hypoxia by inhibiting the degradation of HIF-1α, a hypoxia-related gene that appears in the early stages of fibrosis, was treated at 1 mM for 24 hours, and the influences of JPI-289 (10 uM and 24 hours) and PJ34 (10 uM and 24 hours) were also identified. In addition, as a positive control group, it was compared with INT-747, a drug that successfully completed phase 3 clinical trials for NASH indication.
# TIPARP = TIPARP expression in Hep3B cells upon TCDD; format: cell-based; settings: for expression of TIPARP: 10 uM, 24 hours, upon TCDD administration (FIG. 7B)
# Procedure: as §1
# HIF-1α [3] = assay: HIF-1α expression in Hep3B cells upon DMOG; format: cell-based; settings: 10 uM, 24 hours, DMOG 1 mM
# Procedure: as §1
# PARP1 = PARP1 expression in Hep3B cells upon TCDD; format: cell-based; settings: compared to INT-747-treated group
# Procedure: as §1
# vimentin = assay: Vimentin expression in Hep3B cells upon TCDD; format: cell-based; settings: compared to INT-747-treated group
# Procedure: as §1
# HIF-1α [4] = assay: HIF-1α expression in liver of high-fat diet mice, tissue immunochemical analysis; format: in vivo; settings: JPI-289 50 mpk for 6 weeks, compared to PJ34 (10 mpk) or INT-747 (10 mpk)
# Procedure: To identify the HIF-1 inhibitory effect of INT-747 and JPI-289 in Example 4-1 also in vivo, 5-week-old mice were placed on a high-fat diet (HFD) 1 week after introduction. After 6 weeks, JPI-289 (50 mpk), PJ34 (10 mpk), and INT-747 (10 mpk) were administered for a total of 6 weeks, respectively, and the level of HIF-1α expression in the liver was identified by tissue immunochemical analysis.
# TGF-beta2 = TGF-beta2 inhibition at RNA level in Hep3B cells; format: cell-based; settings: compared to INT-747
# Procedure: as §1
# The inhibitory effects of TGF-beta2 (a downstream signal of HIF-1) by JPI-289 and INT-747 in Hep3B cell line were compared at the RNA level under the same conditions as in Example 4-1.
# [5] = test system: high-fat diet mouse model; assay: High-fat diet animal model: body weight, liver size and weight; format: in vivo; settings: 6 weeks; for liver size and weight: compared to high-fat diet group
# Procedure: A high-fat diet animal model was created, and after 6 weeks, JPI-289 (JPI) and a positive control group of INT-747 (INT) were administered for a total of 6 weeks (FIG. 12), and body weight, liver size, and weight were checked. As a result, weight loss was identified in the group administered 50 mpk of JPI-289 compared to the high-fat diet group and the INT-747 administration group (FIG. 13). In addition, compared to the high-fat diet group, liver size and weight were decreased in the JPI-289 10 mpk administration group, JPI-289 50 mpk administration group, and INT-747 10 mpk administration group.
# STAM™ mouse model [6] = assay: STAM mouse model, short-term (3 weeks) administration; format: in vivo
# Procedure: Streptozotocin was administered on the second day after birth, and a high-fat diet was administered starting 4 weeks after birth, causing non-alcoholic steatohepatitis (NASH) at 7 to 8 weeks of age. To identify the effect of JPI-289 on NASH and early fibrosis in the STAM™ mouse model (FIG. 15) in which fibrosis is induced by steatohepatitis at 9 to 12 weeks, the drug was administered at 10 mg/kg and 50 mg/kg, respectively for a total of 3 weeks, from 6 to 9 weeks, and the fibrosis-induced area was identified (FIG. 16).
# JPI-289 was administered as in Example 6-1, and the NAFLD score and ballooning score were identified as values for evaluating fatty liver.
# STAM™ mouse model [7] = assay: STAM mouse model, long-term (6 weeks) administration; format: in vivo
# Procedure: After administering JPI-289 (10 mg/kg) for a total of 6 weeks from 6 to 12 weeks in the same manner as in Example 6 (FIG. 19), the fibrosis area was checked.
# After administering JPI-289 (10 mg/kg) for a total of 6 weeks from 6 to 12 weeks in the same manner as in Example 6, the NAFLD score and ballooning score were checked to identify the degree of inhibition of fatty liver.
# [8] = 10 mg/kg, 6 weeks, compared to control group
smiles,measurement,setting,value
"CC[C@H]1[C@@H](O)[C@@H]2[C@H](CC[C@]3(C)[C@@H]([C@H](C)CCC(=O)O)CC[C@@H]23)[C@@]2(C)CC[C@@H](O)C[C@@H]12 [INT-747, reference compound]",fat accumulation inhibitory effect,HepG2 cell line,about 13%
"CCOc1cc(CN2CCOCC2)cc2[nH]c(=O)c3c(c12)NCCC3 [JPI-289, 10-ethoxy-8-(morpholinomethyl)-2,3,4,6-tetrahydrobenzo[h][1,6]naphthyridin-5(1H)-one dihydrochloride dihydrate]",toxicity to cells (MTT cell viability),[1]; concentrations of 20 and 40 uM,toxic
same,toxicity to cells (MTT cell viability),"[1]; up to a concentration of 10 uM, for 72 hours",not toxic
same,toxicity (MTT analysis),3T3L1 cell line,no significant effect
same,fat accumulation decrease,"[2]; 250 nM (0.25 uM), 3T3L1",about 37%
same,differentiation into adipocytes,[2]; 5 uM or higher,inhibited depending on the concentration
same,fat accumulation in 3T3L1 cells,"[2]; 5 uM or higher, Oil-Red O",significantly decreased
same,differentiation into adipocytes,[2]; 0.05 to 2.5 uM,inhibited depending on the concentration
same,fat accumulation inhibitory effect compared to olaparib 5 uM,"[2]; JPI-289 2.5 uM, 3T3L1",similar
same,fat accumulation inhibitory effect compared to 5-AIQ (10 uM) and PJ34 (10 uM),"[2]; JPI-289 0.25 to 2.5 uM, 3T3L1",significantly superior
same,inhibition at 0.05 µM,"[2]; Mus musculus, 3T3-L1, 50 nM (0.05 uM), 3T3L1, read-out: differentiation inhibitory effect",~15%
same,concentration dependence of fat accumulation inhibition,"HepG2 cell line; HepG2, high concentrations",more effective at high concentrations
same,fat accumulation inhibitory effect,HepG2 cell line,about 21%
same,PARylation,PARylation,significantly inhibited
same,expression of TIPARP,TIPARP,significantly increased
same,TIPARP,"TIPARP; upon TCDD, compared to INT-747-treated group (FIG. 8)",increased
same,expression of HIF-1α,HIF-1α [3],significantly decreased
same,expression of PARP1,PARP1,significantly decreased
same,"expression of vimentin, a fibrosis marker",vimentin,decreased
same,HIF-1α expression in the liver,HIF-1α [4],significantly decreased
same,TGF-beta2 at the RNA level,TGF-beta2,significantly inhibited
same,liver size and weight,[5]; 10 mpk,decreased
same,liver size and weight,[5]; 50 mpk,significant decrease
same,body weight,"[5]; 50 mpk, compared to high-fat diet group and INT-747 group",weight loss
same,NAFLD score,"STAM™ mouse model [6]; 10 mg/kg and 50 mg/kg, 3 weeks",decrease
same,ballooning score,"STAM™ mouse model [6]; 10 mg/kg and 50 mg/kg, 3 weeks",decrease
same,fibrosis area,"STAM™ mouse model [6]; 10 mg/kg and 50 mg/kg, 3 weeks (6 to 9 weeks of age)",significantly decreased
same,overall effect versus control group,"STAM™ mouse model [6]; administered for 3 weeks, all dose groups",more effective than the control group
same,fibrosis area,"STAM™ mouse model [7]; 10 mg/kg, 6 weeks (6 to 12 weeks), compared to Vehicle",significantly decreased
same,NAFLD score,STAM™ mouse model [7]; [8],significantly decreased
same,ballooning score,STAM™ mouse model [7]; [8],decreased
same,overall effect versus control group,STAM™ mouse model [7]; low dose for 6 weeks,superior effect compared to the control group
"CN(C)CC(=O)Nc1ccc2[nH]c(=O)c3ccccc3c2c1 [PJ34, reference compound]",expression of TIPARP,TIPARP,almost no increase
same,expression of HIF-1α,HIF-1α [3],did not decrease
